Measured values: ChEMBL document CHEMBL5050844 (2019)

Tests used:
Type in all cases: functional, T cell line
[1] = Induction of anti-CD3/CD28 antibodies-stimulated human T cell activation at 1 uM assessed fold increase in CD25 expression measured by ELISA assay
[2] = Induction of anti-CD3/CD28 antibodies-stimulated human T cell activation at 0.3 uM assessed fold increase in CD25 expression measured by ELISA assay
[3] = Induction of anti-CD3 antibodies-stimulated human T cell activation at 1 uM assessed fold increase in IL-2 secretion measured by ELISA assay; note: reference of the scale not given here
[4] = Induction of anti-CD3/CD28 antibodies-stimulated human T cell activation at 0.3 uM assessed fold increase in IL-2 secretion measured by ELISA assay
[5] = Induction of anti-CD3 antibodies-stimulated human T cell activation at 1 uM assessed fold increase in CD25 expression measured by ELISA assay; note: reference of the scale not given here
[6] = Induction of anti-CD3/CD28 antibodies-stimulated human T cell activation at 1 uM assessed fold increase in IL-2 secretion measured by ELISA assay

Cn1cnnc1[C@H](F)C1(c2cccc(N3Cc4c(cc(CN5C6CCCC5CC6)cc4C(F)(F)F)C3=O)c2)COC1 (stereo in doubt; 675b)
fold change (FC) ([1]; 1 µM): 1.31 | fold change (FC) ([2]; 0.3 µM): 1.31

Cn1cnnc1-c1cnn(C)c1-c1cccc(N2Cc3c(cccc3C(F)(F)F)C2=O)c1
fold change (FC) [3]: 0.051 | fold change (FC) [4]: 1.01 | fold change (FC) [5]: 0.601 | fold change (FC) [6]: 1.01 | fold change (FC) [1]: 1.01 | fold change (FC) [2]: 1.01

Cn1cnnc1CC1(c2cccc(NC(=O)c3nc(C(F)(F)F)cs3)c2)COC1
fold change (FC) [3]: <=0.05 | fold change (FC) [4]: 1.01 | fold change (FC) [5]: 0.601 | fold change (FC) [6]: 2.51 | fold change (FC) [1]: 1.01 | fold change (FC) [2]: 1.01

CN(c1cc2c(c(C(F)(F)F)c1)CN(c1cccc([C@@](C)(F)C(F)(F)c3nncn3C)c1)C2=O)[C@@H]1CNC[C@@H]1F
fold change (FC) [3]: 0.101 | fold change (FC) [4]: 1.01 | fold change (FC) [5]: 0.601 | fold change (FC) [6]: 2.51 | fold change (FC) [1]: 1.01 | fold change (FC) [2]: 1.01

Cn1cnnc1CC1(c2cccc(N3Cc4c(cc(C(F)(F)C(=O)O)cc4C(F)(F)F)C3=O)c2)COC1
fold change (FC) [3]: <=0.05 | fold change (FC) [4]: 1.01 | fold change (FC) [5]: 0.601 | fold change (FC) [6]: 1.01 | fold change (FC) [1]: 1.01 | fold change (FC) [2]: 1.01

C[C@H](Cc1nncn1C)c1cc(-c2cncs2)nc(N2Cc3c(cccc3C(F)(F)F)C2=O)c1
fold change (FC) [3]: 0.051 | fold change (FC) [4]: 1.01 | fold change (FC) [5]: <=0.6 | fold change (FC) [6]: 1.01 | fold change (FC) [1]: 1.01 | fold change (FC) [2]: 1.01

C[C@H](Cc1nncn1C)c1cc(-c2cn[nH]c2)nc(N2Cc3c(cccc3C(F)(F)F)C2=O)c1
fold change (FC) [3]: 0.051 | fold change (FC) [4]: <=1 | fold change (FC) [5]: <=0.6 | fold change (FC) [6]: <=1 | fold change (FC) [1]: <=1 | fold change (FC) [2]: <=1

Cc1cc(C(=O)Nc2cccc(C3(Cc4nncn4C)COC3)c2)n2nccc2n1
fold change (FC) [3]: <=0.05 | fold change (FC) [4]: 1.01 | fold change (FC) [5]: 0.601 | fold change (FC) [6]: 1.01 | fold change (FC) [1]: 1.01 | fold change (FC) [2]: 1.01

Cc1cnn2c(C(=O)Nc3cccc(C4(Cc5nncn5C)COC4)c3)cc(C(F)(F)F)nc12
fold change (FC) [3]: <=0.05 | fold change (FC) [4]: <=1 | fold change (FC) [5]: 0.601 | fold change (FC) [6]: 1.01 | fold change (FC) [1]: 1.01 | fold change (FC) [2]: 1.01

Cn1cnnc1CC1(c2cccc(N3Cc4c(cc(C5=CN6CCC5CC6)cc4C(F)(F)F)C3=O)c2)COC1
fold change (FC) [3]: <=0.05 | fold change (FC) [4]: 1.01 | fold change (FC) [5]: 0.601 | fold change (FC) [6]: 2.51 | fold change (FC) [1]: 1.01 | fold change (FC) [2]: 1.01

Cn1cnnc1[C@@H](F)C1(c2cccc(N3Cc4c(cc(CN5C6CCCC5CC6)cc4C(F)(F)F)C3=O)c2)COC1 (stereo in doubt; 675a)
fold change (FC) ([3]; 1 µM): 0.101 | fold change (FC) ([5]; 1 µM): >=1.001 | fold change (FC) ([1]; 1 µM): 1.31 | fold change (FC) ([2]; 0.3 µM): 1.01
